Consider 22 compounds from PubChem BioAssay (NCI).

Among the test systems are RPMI-8226 leukemia; NCI-H460 lung; SNB-19 CNS; U251 CNS; UO-31 renal; M14 melanoma; IGROV1 ovarian; NCI-H226 lung; NCI-H522 lung.
Holding throughout (test): NCI tumour cell line growth inhibition, 48 h

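A five-concentration, 48-hour dose response in 96-well plates underlies each endpoint, interpolated linearly between surrounding concentrations. The concentration for 50% growth inhibition is given as GI50. At the TGI there is no net growth.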

Turning to `Cc1c(NC(=O)CCl)c(=O)oc2c(C)c3occc(=O)c3cc12`, the TGI in the test on RPMI-8226 leukemia turned out to be 60.1 µM; in the test with NCI-H460 lung, 27.5 µM; in the test on SNB-19 CNS, 33.6 µM; with U251 CNS, 27.5 µM; in the test on UO-31 renal, 22.4 µM; in the test on M14 melanoma it was 26 µM. Moreover, the TGI with IGROV1 ovarian amounted to 31.2 µM.
On to `CN(C)CCNC(=O)c1cccc2nc3ccc4cccnc4c3nc12`, for which the TGI with NCI-H460 lung is 1.01 µM; in the test with SNB-19 CNS it was 6.75 µM; in the test with U251 CNS it was 4.39 µM; in the test on NCI-H226 lung, 1.83 µM; with UO-31 renal it was 2.4 µM; in the test on M14 melanoma it was 3.03 µM.
For the compound `O=C1NC(=O)C(=Cc2c3ccccc3cc3ccccc23)C(=O)N1`, the TGI with RPMI-8226 leukemia, in the test with NCI-H460 lung, in the test on SNB-19 CNS, in the test on U251 CNS, with UO-31 renal and with M14 melanoma was > 100 µM throughout. The TGI with IGROV1 ovarian and in the test on NCI-H522 lung was > 100 µM each time.
Turning to `CC(C)(CN1CCOCC1)C(=O)/C=C/c1ccc(/C=C/C(=O)C(C)(C)CN2CCOCC2)cc1`, the TGI is 7.63 µM with RPMI-8226 leukemia; 19.4 µM with NCI-H460 lung; 2.63 µM in the test on U251 CNS; 5.22 µM in the test with NCI-H226 lung; 3.15 µM in the test on UO-31 renal; 4.47 µM in the test with IGROV1 ovarian. For the same compound, the TGI in the test on NCI-H522 lung came to 0.928 µM.
Regarding `Cc1cc2c(c3nocc13)C(=O)c1ccccc1C2=O`, the TGI with RPMI-8226 leukemia, with NCI-H460 lung, in the test on SNB-19 CNS, in the test on U251 CNS, in the test on UO-31 renal and with M14 melanoma was > 100 µM throughout. Moreover, the TGI in the test with IGROV1 ovarian and with NCI-H522 lung was > 100 µM each time.
Take `Cc1cc(C)nc(NS(=O)(=O)c2ccc(Nc3c4ccccc4nc4c(C(=O)Nc5ccc(S(=O)(=O)Nc6cc(C)on6)cc5)ccc(Cl)c34)cc2)n1`: the TGI in the test on RPMI-8226 leukemia came to 57.8 µM; in the test with NCI-H460 lung it was 61.3 µM; in the test with SNB-19 CNS it was 48.9 µM; in the test on U251 CNS it was 30.9 µM; in the test on UO-31 renal it was 45.3 µM; in the test with M14 melanoma, 44 µM. This compound also had a TGI with NCI-H522 lung of 51.4 µM.
As to `COc1cccc2c1C(=O)c1c(O)c3c(c(O)c1C2=O)C[C@@](O)(C(C)=O)C[C@@H]3OC1CC([N+]([O-])(Cc2ccccc2)Cc2ccccc2)C(O)C(C)O1` (stereo not given in full), the TGI in the test with NCI-H460 lung came to 2.39 µM; with SNB-19 CNS it was 15.8 µM; in the test with U251 CNS it was 2.48 µM; in the test with UO-31 renal it was 2.54 µM; with M14 melanoma, 3.07 µM; in the test with IGROV1 ovarian, 4.82 µM. The compound further showed a TGI in the test with NCI-H522 lung of 2.68 µM.
On to `COc1ccc2c3c(c(C(=O)O)oc13)CCC2`, for which the TGI in the test on RPMI-8226 leukemia is > 100 µM; in the test with NCI-H460 lung, > 100 µM; in the test on SNB-19 CNS it was > 100 µM; in the test with U251 CNS it was > 100 µM; in the test on NCI-H226 lung, 83 µM; in the test with UO-31 renal, > 100 µM. Further, the TGI in the test with M14 melanoma, with IGROV1 ovarian and in the test on NCI-H522 lung was > 100 µM throughout.
Regarding `CC1(C)OC2CC3COC(=O)C3CC2O1` (stereo not given), the TGI with RPMI-8226 leukemia, with NCI-H460 lung, with U251 CNS, with NCI-H226 lung, in the test with UO-31 renal and in the test on M14 melanoma was > 100 µM in each case. Moreover, the TGI in the test with IGROV1 ovarian and in the test with NCI-H522 lung was > 100 µM throughout.
As for `CSC(=Nc1ccccc1Cl)NC(=O)c1ccc(Br)cc1`, the TGI in the test on RPMI-8226 leukemia, in the test on NCI-H460 lung, with SNB-19 CNS, in the test with U251 CNS, in the test with NCI-H226 lung and with UO-31 renal was > 100 µM in each case. For the same compound, the TGI in the test on M14 melanoma, in the test on IGROV1 ovarian and in the test with NCI-H522 lung was > 100 µM in each case.
For `CCN(CCCl)CCCCCNc1c2ccccc2nc2ccc(OC)cc12`, the TGI in the test with RPMI-8226 leukemia was 1.47 µM; in the test on NCI-H460 lung, 1.51 µM; with SNB-19 CNS it was 3.78 µM; with U251 CNS it was 2.23 µM; with NCI-H226 lung, 2.3 µM; in the test on UO-31 renal, 12.7 µM. Besides, the TGI in the test with M14 melanoma stood at 9.74 µM; in the test with IGROV1 ovarian, 4.24 µM; in the test on NCI-H522 lung, 2.03 µM.
`NCCOCn1cc(Cc2cccc(OCc3ccccc3)c2)c(=O)[nH]c1=O`: the TGI in the test with RPMI-8226 leukemia, with NCI-H460 lung, in the test with SNB-19 CNS, in the test on U251 CNS, in the test with NCI-H226 lung and with UO-31 renal was > 100 µM each time. Also, the TGI in the test with M14 melanoma and in the test with IGROV1 ovarian was > 100 µM throughout.
In the case of `CCCN(CCC)CCc1cc(C(C)=O)n(S(=O)(=O)c2ccc(C)cc2)c1`, the TGI with RPMI-8226 leukemia, with NCI-H460 lung, with SNB-19 CNS, in the test with U251 CNS, in the test with NCI-H226 lung and with UO-31 renal was > 100 µM throughout. Also, the TGI with M14 melanoma is 40.2 µM; with IGROV1 ovarian, > 100 µM; in the test with NCI-H522 lung, > 100 µM.
`CC(C)=O.O=C([O-])C(F)(F)F.O=C([O-])C(F)(F)F.O=C([O-])C(F)(F)F.O=C([O-])C(F)(F)F.[Rh+2].[Rh+2]`: the GI50 was 33.2 µM in the test on RPMI-8226 leukemia; 60.4 µM in the test with SNB-19 CNS; 47.5 µM with U251 CNS; > 100 µM with NCI-H226 lung; > 100 µM in the test with UO-31 renal; > 100 µM in the test on M14 melanoma. In addition, in the test with IGROV1 ovarian, the GI50 is > 100 µM. Also, the TGI in the test with RPMI-8226 leukemia, in the test with SNB-19 CNS, in the test with U251 CNS, in the test with NCI-H226 lung, in the test on UO-31 renal and in the test with M14 melanoma was > 100 µM each time. For the same compound, in the test on IGROV1 ovarian, the TGI is > 100 µM.
As for `S=c1nc(C(c2ccccc2)c2ccccc2)[nH][nH]1`, the TGI in the test with NCI-H460 lung, in the test on SNB-19 CNS, in the test on U251 CNS, in the test with NCI-H226 lung, with UO-31 renal and in the test with IGROV1 ovarian was > 100 µM each time. In addition, the TGI in the test on NCI-H522 lung is > 100 µM.
On to `O=c1/c(=C/c2c(O)ccc3ccccc23)sc2nc3ccccc3n12`, for which the TGI in the test with NCI-H460 lung, with SNB-19 CNS, with U251 CNS, with NCI-H226 lung, in the test with UO-31 renal and with M14 melanoma was > 100 µM throughout. For the same compound, the TGI with IGROV1 ovarian and in the test on NCI-H522 lung was > 100 µM each time.
`O=C1C=CC(=O)C2C1Cc1ccccc1C2c1ccccc1` (stereo not given): the TGI is 67.6 µM in the test with RPMI-8226 leukemia; 81.4 µM in the test with NCI-H460 lung; > 100 µM in the test with SNB-19 CNS; 33 µM in the test with U251 CNS; > 100 µM in the test with NCI-H226 lung; > 100 µM in the test with UO-31 renal. Also, the TGI was > 100 µM in the test on M14 melanoma, > 100 µM with IGROV1 ovarian and 35.2 µM with NCI-H522 lung.
On to `COC1=CC(=O)C(Br)=CC1=O`, for which the TGI was 50.6 µM in the test on RPMI-8226 leukemia; > 100 µM with NCI-H460 lung; 32.9 µM with SNB-19 CNS; 31.7 µM with UO-31 renal; 33.5 µM in the test with M14 melanoma; 31.1 µM with IGROV1 ovarian. In the test on NCI-H522 lung, this compound returned a TGI of 23.9 µM.
Turning to `Cn1cnc([N+](=O)[O-])c1Sc1nnnn1C`, the TGI is > 100 µM in the test with RPMI-8226 leukemia; > 100 µM in the test with NCI-H460 lung; > 100 µM with SNB-19 CNS; 34.1 µM in the test on U251 CNS; > 100 µM with NCI-H226 lung; 32.6 µM in the test with UO-31 renal. Also, the TGI was determined as 28.4 µM in the test on M14 melanoma, 49.1 µM with IGROV1 ovarian and 20.5 µM in the test on NCI-H522 lung.
As to `CCC[CH2][Sn]([CH2]CCC)([CH2]CCC)[O]C(=O)C(OC(C)=O)c1ccccc1` (stereo not given), the GI50 in the test on RPMI-8226 leukemia was 0.0212 µM; with NCI-H460 lung, 0.138 µM; in the test with SNB-19 CNS it was 0.176 µM; with U251 CNS, 0.14 µM; with NCI-H226 lung, 0.178 µM; with UO-31 renal, 0.157 µM. Further, the GI50 was 0.138 µM in the test on M14 melanoma, 0.153 µM in the test on IGROV1 ovarian and 0.144 µM in the test with NCI-H522 lung. For the same compound, the TGI came to 0.298 µM in the test on RPMI-8226 leukemia; 0.28 µM in the test with NCI-H460 lung; 0.322 µM in the test on SNB-19 CNS; 0.27 µM in the test with U251 CNS; 0.336 µM with NCI-H226 lung; 0.292 µM with UO-31 renal. In addition, the values for the TGI in the test with M14 melanoma, in the test with IGROV1 ovarian and in the test on NCI-H522 lung were 0.267 µM, 0.323 µM and 0.287 µM, respectively.
With `O=c1nc(NC(c2ccccc2)(c2ccccc2)c2ccccc2)ccn1CCCl`, the TGI in the test on RPMI-8226 leukemia was 55.7 µM; with NCI-H460 lung, 36.4 µM; with SNB-19 CNS it was 28.9 µM; in the test with U251 CNS it was 28.7 µM; with NCI-H226 lung it was 42.8 µM; with UO-31 renal it was > 100 µM. Besides, the TGI in the test with IGROV1 ovarian worked out at 48.1 µM; with NCI-H522 lung, 41.4 µM.
Turning to `Cc1ccc(NC(=O)C(=O)C(C(=O)c2ccc3ccccc3c2)C2OC(=O)c3ccccc32)c(C)c1` (stereo not given), the TGI in the test on RPMI-8226 leukemia worked out at 40.4 µM; with NCI-H460 lung, 25.5 µM; in the test with U251 CNS, 17.2 µM; with NCI-H226 lung, 15.8 µM; in the test on UO-31 renal it was 36.7 µM; with M14 melanoma, 36.9 µM. For the same compound, the figures for the TGI in the test with IGROV1 ovarian and in the test with NCI-H522 lung were 39.9 µM and 31.3 µM, respectively.
